Assays:
XALD fibroblasts [1] = test: Inhibition studies: ATP5B immunofluorescence of drug-induced mitochondrial biogenesis; format: cell-based, human; conditions: inhibitor added before 4PBA, HU, TSA or SFN; XALD fibroblasts
Description: Performed as described in Watkins et al., 1995 using 4% formaldehyde, 1% Triton X-100, primary antibody anti-ATP5B (Millipore, Billerica, Mass.) or anti-ABCD3 (Invitrogen, Carlsbad, Calif.), and secondary antibody sheep anti-mouse IgG FITC-conjugated (Santa Cruz Biotechnology, Santa Cruz, Calif.) or goat anti-rabbit IgG rhodamine-conjugated (Jackson ImmunoResearch, West Grove, Pa.).
Antimycin A (10 ng/mL), LY294002, PD98059, RO-31-8425, SB203580, SP600125, and L-NAME were obtained from Sigma. Compound C was from EMD Biosciences (Darmstadt, Germany). Human fibroblasts were treated with each inhibitor. Then, 45-75 min later, either 4PBA, HU, TSA, or SFN was added. Cells were stained four to six days after treatment with one of the small molecules. As a control for inhibitors dissolved in DMSO, fibroblasts were treated with an equivalent amount of DMSO in the absence of inhibitor. […]
In FIGS. 2A-B, the JNK inhibitor SP600125 (10 μM+inh) was utilized. […] XALD fibroblasts were treated with each drug for four days with or without SP600125. (400× magnification). […] Normal human fibroblasts were treated with each of the small four molecules with or without SP600125 for six days. Quantitative in-cell western analyses were performed using anti-ATP5B.

XALD fibroblasts [2] = test: Fatty acid β-oxidation of 1-14C-labeled fatty acids; format: cell-based, human
Description: Fatty acid β-oxidation activity in XALD fibroblasts was determined by measuring their capacity to degrade 1-^14C-labeled fatty acids to water-soluble products as described in McGuiness et al., 2003.
4PBA-induced peroxisomal VLCFA β-oxidation (degradation) is dependent on mitochondrial long chain fatty acid (LCFA) β-oxidation (McGuinness et al., 2003). […] Antimycin A (AA) is a cytochrome c reductase inhibitor that inhibits the mitochondrial electron transport chain, mitochondrial biogenesis, and thus, cellular respiration (Ranganathan et al., 2009). […] XALD fibroblasts were treated with 4PBA in the presence or absence of antimycin A (AA), a cytochrome c reductase inhibitor, for five days and β-oxidation levels of LCFA (C16:0) and VLCFA (C24:0) levels were measured.

K562 cells [3] = test: Flow cytometric analysis of mitochondrial mass (Mitotracker); format: cell-based, human; conditions: FIG. 1C
Description: (§1) Fibroblasts (70-95% confluent) were treated with 5 mM 4PBA (1 mM for JNK inhibition studies), 600 μM HU, 200 nM TSA, or 5 μM SFN unless otherwise specified.
(§2) K562 cells were incubated with 50 nM Mitotracker Green FM, 300 nM Mitotracker Deep Red 633 (Invitrogen), or PBS as a negative control for 15 min at 37° C. or stained with anti-Pex14 using Caltag Fix and Perm reagents (Invitrogen) following the manufacturer's instructions. Stained cells were suspended in 0.5 mL of 1% paraformaldehyde/PBS and subjected to flow cytometric analysis (FACScan machine, Becton Dickinson, Franklin Lakes, N.J.).
(§3) K562 cells were treated with SB and HU for four to ten days. […] (n≧3 unless otherwise noted).
To determine whether the induction of mitochondrial biogenesis by SB or HU treatment was necessary for the induction of HbF-producing cell production, K562 cells were treated with SB or HU in the presence or absence of AA. […] After two to four days of drug treatment with or without AA, mitochondrial mass was measured using Mitotracker, a mitochondrial stain. Fold change (drug treated/control) is shown. […] After four days of drug treatment with or without AA, cells were stained with DAF. The relative number of cells producing HbF (DAF stained cells) were plotted. […] After eight to ten days of drug treatment, peroxisome proliferation was measured using an antibody against the peroxisomal membrane protein, PEX14 and a FITC-labeled secondary antibody. Fold change (drug treated/control) is shown. In FIGS. 1C, 1D, and 1E, the * represents a statistically significant increase in a measurement between drug treated and control samples or a statistically significant decrease in a measurement between drug treated and drug treated samples in the presence of AA (p≦0.05) (Bars=SEM). This finding indicates dependence of the beneficial effect (i.e., elevated HbF levels) on induced mitochondrial biogenesis. Thus, the therapeutic effects observed in SCD may involve the pharmacological induction of mitochondrial biogenesis by SB or HU. […]

K562 cells [4] = test: HbF-producing cell production (DAF staining); format: cell-based, human; conditions: FIG. 1D
Description: as §1
K562 cells were suspended in 1.1 mL media and 240 μL of DAF [working solution 50 μL 2,7diaminofluorene (DAF) stock (50 μg DAF in 5 mL 90% glacial acetic acid), 50 μL 30% hydrogen peroxide, and 2.5 ml 200 mM Tris-HCl, pH 7.0]. DAF stained hemoglobinized cells were scored using a hemocytometer.
as §3
To determine whether the induction of mitochondrial biogenesis by SB or HU treatment was necessary for the induction of HbF-producing cell production, K562 cells were treated with SB or HU in the presence or absence of AA. […] After two to four days of drug treatment with or without AA, mitochondrial mass was measured using Mitotracker, a mitochondrial stain. Fold change (drug treated/control) is shown. […] After four days of drug treatment with or without AA, cells were stained with DAF. The relative number of cells producing HbF (DAF stained cells) were plotted. […] After eight to ten days of drug treatment, peroxisome proliferation was measured using an antibody against the peroxisomal membrane protein, PEX14 and a FITC-labeled secondary antibody. Fold change (drug treated/control) is shown. In FIGS. 1C, 1D, and 1E, the * represents a statistically significant increase in a measurement between drug treated and control samples or a statistically significant decrease in a measurement between drug treated and drug treated samples in the presence of AA (p≦0.05) (Bars=SEM). This finding indicates dependence of the beneficial effect (i.e., elevated HbF levels) on induced mitochondrial biogenesis. Thus, the therapeutic effects observed in SCD may involve the pharmacological induction of mitochondrial biogenesis by SB or HU.
K562 cells were treated for four days with HU in the presence or absence of SP600125 or PBS as a control (CON). […]

FL-SMN mRNA = test: RT-PCR of FL-SMN and total SMN mRNA in spinal muscular atrophy fibroblasts; format: cell-based, human; conditions: effect of co-treatment with stress pathway inhibitor; FIG. 8B
Description: Following the manufacturer's protocols, DNase I-treated cDNA was synthesized using Superscript III or Thermoscript reverse transcriptase (Invitrogen). PCR reactions were performed in duplicate on the Roche Lightcycler 3.5 (Basel, Switzerland) or the Bio-Rad iCycler (Hercules, Calif.) using Quantitech SYBR green PCR mix (Qiagen, Valencia, Calif.). GeNorm software calculated a normalization factor for each sample using the relative amounts of at least two of the following reference genes, β2-microglobulin, […], actin, and/or eukaryotic elongation factor 1A (Vandesompele et al., 2002). Primers for the various experiments described herein are listed below.
Type I and type III spinal muscular atrophy (SMA I or SMA III) fibroblasts were treated with SFN for the indicated times. The relative fold increase in the ratio of FL-SMN/total SMN transcripts compared with the untreated cell line (normalized to 1) is plotted. Cell lines from left to right are GM09677, GM00232 and 2906. N≧2 independent experiments.
Spinal muscular atrophy fibroblasts were treated with 1.5 mM SFN alone for 51 hr. (SMA I, GM09677) or treated with 0.5 mM SFN for 8 hr. (SMA III, 2906) with or without […] SP600125 (JNK inhibitor), 2.5 mM 3-methyladenine (autophagy inhibitor, APG), […] antimycin A (mitochondrial inhibitor, MITO) or […] sirtinol (SIRT1 inhibitor). The fold increases in FL-SMN expression compared with either GAPDH or total SMN expression and the fold increase in total SMN expression compared with GAPDH expression after SFN treatment is plotted. Untreated values were normalized to 1 and are indicated by the horizontal line. (n=1 per cell line, performed in duplicate)
To determine which stress pathways are necessary for the increase in FL-SMN production, spinal muscular atrophy fibroblasts were co-treated with SFN and either SP600125, an inhibitor of the JNK pathway (Bennett et al., 2001), 3-methyladenine, an inhibitor of the autophagy pathway (Seglen et al., 1982), antimycin A, a mitochondrial inhibitor (Ranganathan et al., 2009), or sirtinol, an inhibitor of SIRT1 activity (Grozinger et al., 2001). […] SIRT1, an NAD+-dependent deacetylase, is known to regulate cellular stress responses, cellular metabolism and cellular survival (Salminen et al., 2009). Specifically, SIRT1 inhibition reduces the induction of HSR genes (Westerheide et al., 2009); SIRT1 activity enhances SOD2 expression (Anastasiou et al., 2006); SIRT1 negatively regulates the mammalian target of rapamycin triggering autophagy (Haigis et al., 2010); and SIRT1 activates mitochondrial biogenesis via the stress-responsive transcription factor PGC1a (Yu et al., 2009). The yeast ortholog Sir2 is necessary for the induction of mitochondrial biogenesis by 4PBA or HU in Saccharomyces cerevisiae (Cha 2010). […] However, SIRT1 can be activated by various post-translational changes. Therefore, the potential involvement of SIRT1 in the therapeutic effects of these drugs by inhibition studies was evaluated.

K562 cells [5] = test: Flow cytometric analysis of peroxisome proliferation (PEX14); format: cell-based, human; conditions: eight to ten days, FIG. 1E
Description: as §1, §2, §3
To determine whether the induction of mitochondrial biogenesis by SB or HU treatment was necessary for the induction of HbF-producing cell production, K562 cells were treated with SB or HU in the presence or absence of AA. […] After two to four days of drug treatment with or without AA, mitochondrial mass was measured using Mitotracker, a mitochondrial stain. Fold change (drug treated/control) is shown. […] After four days of drug treatment with or without AA, cells were stained with DAF. […] After eight to ten days of drug treatment, peroxisome proliferation was measured using an antibody against the peroxisomal membrane protein, PEX14 and a FITC-labeled secondary antibody. […]

HbF = conditions: Keefer et al., 2006; cited from earlier work
[6] = K562 cells, 1.2 mM SB or 100 μM HU

Question: Which “Inhibits Mitochondrial Biogenesis?” value (XALD fibroblasts [1]) does the source give for `COc1cc(C[C@H]2C(=O)OC[C@@H]2Cc2ccc(OC)c(OC)c2)ccc1O` [arctigenin] here?
Answer: Its value is “no”.

Question: Which “Inhibits Mitochondrial Biogenesis?” value (XALD fibroblasts [1]) does the source give for `COc1cccc(-c2cc(=O)c3ccccc3o2)c1N` [PD98059] here?
Answer: Its value is “no”.

Question: Which “Inhibits Mitochondrial Biogenesis?” value (XALD fibroblasts [1]) does the source give for `COC(=O)[C@@H](N)CCCNC(=N)N[N+](=O)[O-]` [L-NAME] here?
Answer: The value was “no”.

Question: Which “Inhibits Mitochondrial Biogenesis?” value (XALD fibroblasts [1]) does the source give for `Cn1cc(C2=C(c3c4n(c5ccccc35)CCC(CN)C4)C(=O)NC2=O)c2ccccc21` (stereo not drawn) [RO-21-8425] here?
Answer: Its value is “no”.

Question: With Antimycin A [AA] as the compound, how does the “induction of peroxisomal VLCFA β-oxidation” value (XALD fibroblasts [2]; 4PBA in the presence of AA) read?
Answer: Its value is “blocked”.

Question: What about the “4PBA-induction of mitochondrial LCFA β-oxidation” value (XALD fibroblasts [2]; in the presence of AA (10 ng/mL)) of the same compound?
Answer: The value was “inhibited”.

Question: And the “induction of mitochondrial biogenesis by SB or HU treatment” value (K562 cells [3]; effect of co-treatment with AA)?
Answer: The value was “significantly inhibited”.

Question: What about the “induction of HbF-producing cells by SB or HU treatment” value (K562 cells [4]; effect of co-treatment with AA) of the same compound?
Answer: Its value is “significantly inhibited”.

Question: And the “increase in FL-SMN transcript levels in SFN-treated spinal muscular atrophy fibroblasts” value (from here on “increase in FL-SMN transcript levels”) (FL-SMN mRNA)?
Answer: The value was “prevented”.

Question: For `Cn1cnc(N)c2ncnc1-2` [3-methyladenine], which “increase in FL-SMN transcript levels” value (FL-SMN mRNA) is on record?
Answer: Its value is “prevented”.

Question: For `c1cc(-c2cnn3cc(-c4ccc(OCCN5CCCCC5)cc4)cnc23)ccn1` [compound C], which “Inhibits Mitochondrial Biogenesis?” value (XALD fibroblasts [1]) is on record?
Answer: The value was “no”.

Question: Which “Inhibits Mitochondrial Biogenesis?” value (XALD fibroblasts [1]) does the source give for `N#CC(=C(/N)Sc1ccccc1N)/C(C#N)=C(\N)Sc1ccccc1N` [U0126] here?
Answer: Its value is “no”.

Question: Which “increase in FL-SMN transcript levels” value (FL-SMN mRNA) does the source give for `CC(NC(=O)c1ccccc1/N=C/c1c(O)ccc2ccccc12)c1ccccc1` (stereo not drawn) [sirtinol] here?
Answer: Its value is “prevented”.

Question: For `CCCC(=O)[O-].[Na+]` [SB, Sodium butyrate], which mitochondrial mass (K562 cells [3]; [6]) is on record?
Answer: Its mitochondrial mass is “significantly increased”.

Question: What about the “number of HbF-producing cells” value (K562 cells [4]; [6]) of the same compound?
Answer: Its value is “significantly increased”.

Question: What about the peroxisomal proliferation (K562 cells [5]) of the same compound?
Answer: Its peroxisomal proliferation is “significantly increased”.

Question: What about the HbF levels (HbF) of the same compound?
Answer: Its HbF levels is “increased”.

Question: With `C[S+]([O-])c1ccc(-c2nc(-c3ccncc3)c(-c3ccc(F)cc3)[nH]2)cc1` (stereo not drawn) [SB203580] as the compound, how does the “Inhibits Mitochondrial Biogenesis?” value (XALD fibroblasts [1]) read?
Answer: The value was “no”.

From US8937050B2, “Methods and compositions for treatment of autism” (The Johns Hopkins University, priority 2011, dated 2015)
